Experimental data taken from ChEMBL document CHEMBL1201862, “PubChem BioAssay data set” (2004).
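These data come from cells grown in 96-well plates and exposed to compound for 48 hours at five concentrations. GI50 is the concentration that inhibits growth by half.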 Calls of active or inactive are those of the source. Cut-off read from the data, not from the text of the source: active = GI50 up to about 1.1 µM and inactive = higher.

Legend:
Assay in all cases: NCI tumour cell line growth inhibition, 48 h
[1] = tested on: T47D
[2] = tested on: DU-145
[3] = tested on: A549
[4] = tested on: SR
[5] = tested on: KM12
[6] = tested on: HOP-62
[7] = tested on: ACHN
[8] = tested on: SK-MEL-2
[9] = tested on: RXF 393
[10] = tested on: HOP-92
[11] = tested on: HCT-15
[12] = tested on: TK-10
[13] = tested on: RPMI-8226
[14] = tested on: SW-620
[15] = tested on: COLO 205
[16] = tested on: OVCAR-5
[17] = tested on: HCC 2998
[18] = tested on: HCT-116
[19] = tested on: MDA-N
[20] = tested on: MCF7

SMILES	GI50 [1]	GI50 [2]	GI50 [3]	GI50 [4]	GI50 [5]	GI50 [6]	GI50 [7]	GI50 [8]	GI50 [9]	GI50 [10]	GI50 [11] [µM]	GI50 [12]	GI50 [13]	GI50 [14]	GI50 [15]	GI50 [16]	GI50 [17]	GI50 [18]	GI50 [19]	GI50 [20]
O=C(O)CCC(NC(=O)c1ccc(Nc2nc3cc(C(F)(F)F)ccc3nc2C(=O)O)cc1)C(=O)O (stereo not drawn)	48.3 µM (inactive)	> 100 µM (inactive)	> 100 µM (inactive)	> 100 µM (inactive)	> 100 µM (inactive)	> 100 µM (inactive)	> 100 µM (inactive)	> 100 µM (inactive)	> 100 µM (inactive)	> 100 µM (inactive)	> 100	> 100 µM (inactive)	> 100 µM (inactive)	> 100 µM (inactive)	> 100 µM (inactive)	> 100 µM (inactive)	> 100 µM (inactive)	> 100 µM (inactive)	> 100 µM (inactive)	> 100 µM (inactive)
CCOC(=O)c1csc(NC(=O)CCCC#N)n1	> 100 µM (inactive)	> 100 µM (inactive)	> 100 µM (inactive)	> 100 µM (inactive)	> 100 µM (inactive)	> 100 µM (inactive)	> 100 µM (inactive)	> 100 µM (inactive)	> 100 µM (inactive)	> 100 µM (inactive)	> 100	> 100 µM (inactive)	> 100 µM (inactive)	> 100 µM (inactive)	> 100 µM (inactive)	> 100 µM (inactive)	> 100 µM (inactive)		> 100 µM (inactive)	> 100 µM (inactive)
COc1nc(N)nc2nc[nH]c12	418 µM (inactive)	478 µM (inactive)	> 500 µM (inactive)	313 µM (inactive)	> 500 µM (inactive)	172 µM (inactive)	328 µM (inactive)	460 µM (inactive)	313 µM (inactive)	235 µM (inactive)	445	242 µM (inactive)	417 µM (inactive)	> 500 µM (inactive)	393 µM (inactive)	345 µM (inactive)	> 500 µM (inactive)	463 µM (inactive)	> 500 µM (inactive)	490 µM (inactive)
Cc1ccc([N+](=O)[O-])cc1S(=O)(=O)Nc1ccc(C2=NNC(c3cccs3)C2)cc1 (stereo not drawn)	4.85 µM (inactive)	30.3 µM (inactive)	22.9 µM (inactive)	20 µM (inactive)	16.5 µM (inactive)	24.3 µM (inactive)	20.7 µM (inactive)	33.7 µM (inactive)	13.6 µM (inactive)	60 µM (inactive)	17		16.6 µM (inactive)	34.1 µM (inactive)	6.87 µM (inactive)	58.9 µM (inactive)	30.8 µM (inactive)	22.5 µM (inactive)	34.9 µM (inactive)	13.7 µM (inactive)
Fc1c(F)c(F)c(CSc2nc3ccccc3[nH]2)c(F)c1F	> 100 µM (inactive)	> 100 µM (inactive)	> 100 µM (inactive)	59 µM (inactive)	> 100 µM (inactive)	> 100 µM (inactive)	> 100 µM (inactive)	> 100 µM (inactive)	> 100 µM (inactive)	47 µM (inactive)	> 100	> 100 µM (inactive)	> 100 µM (inactive)	> 100 µM (inactive)	> 100 µM (inactive)	> 100 µM (inactive)	> 100 µM (inactive)	> 100 µM (inactive)	> 100 µM (inactive)	> 100 µM (inactive)
COc1ccc2c(C)cc(N/N=C/c3sccc3C)nc2c1	7.76 µM (inactive)	6.68 µM (inactive)	13.3 µM (inactive)	22.9 µM (inactive)	8.05 µM (inactive)	15.2 µM (inactive)	21.7 µM (inactive)	15.6 µM (inactive)	14.9 µM (inactive)	16.1 µM (inactive)	6.03	17.1 µM (inactive)	5.69 µM (inactive)	21.6 µM (inactive)	3.91 µM (inactive)	13.5 µM (inactive)	12.6 µM (inactive)	4.08 µM (inactive)	14.3 µM (inactive)	11.4 µM (inactive)
